pEC50: −log10 of the molar value. Entries after “also recorded” stand apart in the source; their conditions may differ.
Key:
Type in all cases: cell-based, human
HMOX1 = HMOX1 protein expression by immunofluorescence (primary screen, high-content imaging); details: NHLF cells
Method: NHLF cells were grown to 80% confluency and harvested by washing once with HEPES and then trypsinizing. Equal numbers ([…]) of NHLF cells were plated in 384 well optilux tissue culture (BD) plates. Cells were incubated overnight in FGM-2 medium prior to exposure to compound. Cells were treated with either DMSO or compound for 16 h. Cells were wash 2× with 1×PBS and fix with 4% Paraformaldyhyde for 15 min. The fixed cells were then permeablized with 0.1% Triton X-100 and blocked with 5% BSA in 1× PBS 0.05% Tween-20 for 15 min. HO-1 antibody (abcam) was used for immunostaining at 1:300 dilution in 1% BSA in 1×PBS for 1 hr. Cells were washed 2× with 1×PBS and secondary antibody goat anti-mouse Alexa 488 1:400 dilution (Invitrogen); Hoechst 1:2000 (Invitrogen) in 1% BSA in 1×PBS for 1 hr. The plate was washed 5× with 1×PBS and read at Hoechst Excitation (“Ex.”) 360 Emission (“Em.”) 535; Alexa 488 Ex. 480 Em. 535 using GE InCell 1000. Results were analyzed using GE InCell Analyzer software and represented as the fold change above DMSO treated cells.
A rapid, quantitative screening assay to detect HMOX1 levels in cells based on an immunofluorescent microscopy using an automated high-content imaging system was developed. […] The data are arrayed as in an IR chart with a calculated mean value for the plate and the 3-sigma upper and lower-confidence limits (UCL and LCL). […]

HSPA6 = experiment: mRNA expression (Quantigene Plex) in NHLF cells: HSPA6; details: Table 5, 6 h, mRNA normalized to GAPDH, above DMSO treated cells
Method: (§1) Secondary growth of NHLF cells were used for all assays. Cell were thawed and then placed into culture in T225 flasks. The cells were grown to 80% confluency and harvested by washing once with HEPES buffered saline solution and then trypsinizing. Equal numbers (7×10^3 cells per well) of NHLF cells were plated in 96 well tissue culture plates (Corning). Cells were incubated overnight in FGM-2 medium prior to exposure to compound. Cells were treated with either DMSO or a compound as described below for 6 h. Preparation of cell lysates was carried out according to instructions using the Quantigene Reagent system 2.0 protocol (Panomics). mRNA induction was detected from cell lysate using the Quantigene Plex 2.0 Assay Kit (Panomics) on the Luminex platform (BIO-RAD). Expression of GAPDH mRNA was used as the internal control for the Quantigen Plex 2.0 Assay. The data in Tables 5 and 6 represents the fold change of target mRNA expression, normalized to control values, above DMSO treated cells.

GADD45A = experiment: mRNA expression (Quantigene Plex) in NHLF cells: GADD45A; details: Table 5, 6 h, mRNA normalized to GAPDH, above DMSO treated cells
Method: as §1

NHLF cells = experiment: ROS measurements (H2DCF-DA imaging); details: 1 hr, cell-by-cell imaging, FIG. 3A/3B
Summary of the method: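 Secondary-passage NHLF cells (2,000/well, overnight) loaded 30 min with H2DCF-DA, 10 μM ferric ammonium citrate and Hoechst, washed, then treated with compound in FBM-2 medium 1 h at 37 °C, 5% CO2. ROS quantified by automated fluorescence imaging of DCF signal.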

In the case of `O=C(Nc1ccc2cn[nH]c2c1)c1ccc2[nH]c(Nc3nc4ccccc4s3)nc2c1` [Compound 13, 2-(Benzothiazol-2-ylamino)-1H-benzoimidazole-5-carboxylic acid (1H-indazol-6-yl)-amide], the pEC50 (HMOX1; Homo sapiens, immunofluorescence, dose response, FIG. 2, read-out: effective potency (HMOX1 induction)) was greater than 6.00, the “averaged signal intensity for HMOX1 staining versus upper confidence limit (UCL)” value (HMOX1; primary screen, FIG. 1) was “significantly greater than the upper confidence limit” and the “HSPA6 (fold induction)” value (HSPA6) was “did not induce”. The “HSPA6 (fold induction)” value (HSPA6; listed as #13) was 0.96 fold induction, the “GADD45A (fold induction)” value (GADD45A) was 0.89 fold induction and the “ROS production (in words)” value (NHLF cells) was “modestly elevated ROS production; also recorded: little increase in ROS production”.

— patent publication US9707239B2, “Compounds that modulate oxidative stress” (vTv Therapeutics LLC, priority 2011, dated 2017)
